Reference: patent publication US20160279207A1, “TARGETING GDF6 AND BMP SIGNALING FOR ANTI-MELANOMA THERAPY” (University of Massachusetts, priority 2015, published 2016)
Entries after “also recorded” stand apart in the source; their conditions may differ.

Experiments:
A375 melanoma cells [1] = test: Apoptosis markers: Annexin5 staining and Caspase 3/7 cleavage; type: cell-based, human; settings: vs shGFP
Protocol: A375 melanoma cells after knockdown of GDF6 or SMAD1 or EGFP were stained for Annexin V and 7-AAD (BD Pharmingen PR Annexin V Apoptosis Detection kit) as per manufacturer's instructions, followed by flow cytometry using a FACSCalibur instrument (BD Biosciences). Caspase3/7 activity was measured using the Caspase-Glo 3/7 assay (Promega) as per manufacturer's instructions.

GDF6 = test: Western blot of GDF6 protein after shRNA knockdown; type: cell-based, human; settings: melanoma cells, vs shGFP control
Protocol: Lentiviral infections were performed as described previously (C. J. Ceol et al., The histone methyltransferase SETDB 1 is recurrently amplified in melanoma and accelerates its onset. (Nature 471, 513-517 (2011)). For stable gene knockdowns, we used pLKO-1 lentiviral vectors to deliver short hairpin sequences (shRNAs) (obtained from the RNAi Consortium (TRC)/Broad Institute through the UMMS RNAi core facility) specific for GDF6 (GDF6.1: TRCN0000141818, target sequence: […] (SEQ ID NO:10); GDF6.2: TRCN0000140097, target sequence: […] (SEQ ID NO:11)) or SMAD1 (SMAD1.1: TRCN0000021781, target sequence: […] (SEQ ID NO:12); SMAD1.2: TRCN0000021782, target sequence: […] (SEQ ID NO:13)) or EGFP (TRCN0000072181, target sequence: […] (SEQ ID NO:14)). Virus was made using a second generation lentiviral packaging system in HEK293T cells and titrated using a p24 ELISA kit (Clontech). Cells were infected with virus at a multiplicity of infection of 2.5 with 8 μg/ml polybrene followed by puromycin selection (2 μm/ml) for 2 days in appropriate media. For overexpression, we used Gateway cloning (Life Technologies) to insert the GDF6 ORF (GE life sciences) or SMAD1DVD ORF (provided by Takenobu Katagiri) into the pLenti CMV Hygro DEST (w117-1) vector (provided by Paul Kaufman). […]

A375 melanoma cells [2] = test: Clonogenic growth (colony formation) assay; type: cell-based, human; settings: for colonies in clonogenic growth assay after shRNA treatment: A375 cells, crystal violet staining; for colonies in clonogenic growth assay after shRNA treatment / colonies in clonogenic growth assay, empty vector-transfected cells: vs shGFP; for colonies in clonogenic growth assay, cells expressing SMAD1 phosphomimic (SMAD1DVD): SMAD1DVD cells treated with shRNA; for colonies in clonogenic growth assay, empty vector-transfected cells: empty vector cells treated with shRNA
Protocol: For growth curves 50,000 live cells were seeded per well in a 6-well tissue culture plate on day 0. The numbers of live cells were calculated every day using an automated cell counter (Nexcelom Bioscience Cellometer Auto T4) following standard procedures. All assays were performed with technical replicates. For clonogenic assays, 3,000 live cells were seeded in a 10 cm tissue culture plate. […] ImageJ was used to quantify the number of colonies. In assays with DMH1 treatment, control or DMH1-containing media was replaced every other day. For soft agar assays a 0.5% bottom layer (1:1 with 1% agar and 2X DMEM with 20% FBS) and a 0.3% top layer (1:1 with 0.6% agar and 2× DMEM with 20% FBS) were used. 3,000 live cells per well of a 6-well tissue culture plate were added in the top layer. Media was added initially then replaced every 3 days. After 3 weeks, colonies were stained with nitroblue tetrazolium chloride overnight at 37° C. Once stained, individual wells were photographed, and ImageJ was used to count the number of colonies. All these assays were done in triplicate, and experiments were repeated at least twice. A representative image of each has been shown.

A375 melanoma cells [3] = test: A375 melanoma xenograft in nude mice, tumor volume; type: in vivo, mouse; settings: for tumor formation (tumor volume) of shRNA-treated cells xenotransplanted into mice: A375 cells treated with shRNA before transplantation, vs shGFP/shEGFP; for xenograft tumor formation, SMAD1 phosphomimic cells: SMAD1DVD cells with GDF6 knocked down; for xenograft tumor formation, empty vector-transfected cells: empty vector cells with GDF6 knocked down
Protocol: An art-accepted model to test for an agent's effects on melanoma is that of using immunocompromised (“nude”) mice which are then injected subcutaneously with melanoma cells, and then concomitant with injection of the cells, sometime after injection, and/or after tumor establishment, the test agent is appropriately administered (e.g., intravenously, peritoneally, orally, etc.). Control and treated animals are monitored in part for tumor growth, tumor stabilization, and tumor regression (see for example, Yang et al. 2010. Cancer Res., 70:5518-5527 and Bollag et al. 2010. Nature. 467:596-599).
All animal protocols were approved by the UMMS Institution Animal Care and Use Committee (A-2016, A-2171). Mice were randomly allocated to individual experimental groups. No blinding was done as animal groups were identified by tagging and cage labeling. Animals were excluded, according to pre-established criteria, if the tumor volume reached >1,000 mm^3; if tumor size or location affected the mobility or general health of animal, the animal was euthanized and excluded from the experiment or the complete experiment was terminated. A375 cells stably expressing an EGFP or GDF6 or SMAD1 shRNA and/or empty vector or GDF6-expressing vector or SMAD1DVD-overexpressing vector were subcutaneously injected into the flanks of 6-8-week-old BALB/c nu/nu female mice (Taconic Farms) to produce orthotopic primary tumor. Primary tumor growth was monitored every 3 days with calipers, and the tumor volume was calculated as described previously (C. Gazin, N. Wajapeyee, S. Gobeil, C. M. Virbasius, M. R. Green, An elaborate pathway required for Ras-mediated epigenetic silencing. Nature 449, 1073-1077 (2007)). For GDF6 knockdown, SMAD1 knockdown and epistasis experiments, 1×10^7 live cells were injected. For GDF6 overexpression experiments, 1×10^6 live cells were injected. For GDF6 overexpression and GDF6 knockdowns, a representative of two independent experiments (n=3 animals per experiment) is shown. For DMH1 drug experiments, 1×10^6 live A375 cells were subcutaneously injected in the flanks of BALB/c nu/nu female mice. Beginning on the day cells were injected, mice were injected intraperitoneally with vehicle 12.5% 2-hydroxypropyl-β-cyclodextrin or 25 mg/kg DMH1 in vehicle every other day. The growth of the tumor was monitored as described above. This experiment was repeated twice and the weighted average of both experiments (n=8 total) is represented.

SMAD1 = test: Western blot of SMAD1 protein after shRNA knockdown; type: cell-based, human; settings: melanoma cells, vs shGFP control
Protocol: Lentiviral infections were performed as described previously (C. J. Ceol et al., The histone methyltransferase SETDB 1 is recurrently amplified in melanoma and accelerates its onset. (Nature 471, 513-517 (2011)). For stable gene knockdowns, we used pLKO-1 lentiviral vectors to deliver short hairpin sequences (shRNAs) (obtained from the RNAi Consortium (TRC)/Broad Institute through the UMMS RNAi core facility) specific for GDF6 (GDF6.1: TRCN0000141818, target sequence: […] (SEQ ID NO:10); GDF6.2: TRCN0000140097, target sequence: […] (SEQ ID NO:11)) or SMAD1 (SMAD1.1: TRCN0000021781, target sequence: […] (SEQ ID NO:12); SMAD1.2: TRCN0000021782, target sequence: […] (SEQ ID NO:13)) or EGFP (TRCN0000072181, target sequence: […] (SEQ ID NO:14)). Virus was made using a second generation lentiviral packaging system in HEK293T cells and titrated using a p24 ELISA kit (Clontech). Cells were infected with virus at a multiplicity of infection of 2.5 with 8 μg/ml polybrene followed by puromycin selection (2 μm/ml) for 2 days in appropriate media. For overexpression, we used Gateway cloning (Life Technologies) to insert the GDF6 ORF (GE life sciences) or SMAD1DVD ORF (provided by Takenobu Katagiri) into the pLenti CMV Hygro DEST (w117-1) vector (provided by Paul Kaufman). Infection and monitoring was performed as described (C. J. Ceol et al., The histone methyltransferase SETDB 1 is recurrently amplified in melanoma and accelerates its onset. (Nature 471, 513-517 (2011)), except that selection was done with 300 ug/ml hygromycin for 10 days.
Protein extracts were prepared as previously described (S. D. Epstein L B, Hunte-McDonough B, harris C A, Cytokines: A pratical approach (Balkwill F R., ed). 81-93 (1991)). Extracts were separated on 12% SDS-PAGE gels. Blots were probed with primary antibodies (GDF6 (Sigma PRS4691; 1:1000), phospho-SMAD1/5/8 (Cell Signaling 13820; 1:1000), SMAD1 (Cell Signaling 9743; 1:500), Total SMAD1/5/8 (Santa Cruz sc-6031-R; 1:1000), FLAG (Sigma F3165, 1:2000), GAPDH (Abcam 8245; 1:2000)) overnight at 4° C., washed five times in TBS plus 0.1% Tween (TBST) and then incubated with the appropriate HRP-conjugated secondary antibody (Jackson Labs) for 1 hour at room temperature. Membranes were washed five times in TBST and visualized on autoradiography film after incubating with ECL reagent (Supersignal West Pico or Supersignal West Femto; Thermo Scientific).

MeWo melanoma cells = test: Rescue of GDF6-knockdown melanoma cells by recombinant GDF6 in culture media; type: cell-based, human; settings: cells treated with shRNAs targeting GDF6
Excerpt: To determine if secreted GDF6 can facilitate the growth of melanoma cells, we knocked down GDF6 using shRNAs and then treated these knockdown cells with recombinant GDF6 protein (FIG. 10).

## shGDF6#2: shRNA targeting GDF6 (SEQ ID NO:2); GDF6.2 TRCN0000140097 targets SEQ ID NO:11 (GTGTCCATGCTCTCAGACAAA; the letters are possibly those of the target site; listed as Homo sapiens)
A375 melanoma cells [1]
  apoptosis (Annexin5 staining, Caspase 3/7 cleavage): elevated apoptosis relative to control cells
GDF6
  GDF6 protein expression after shRNA treatment: more effective than shGDF6#1; also recorded: knockdown of GDF6 protein; also recorded: diminishes expression of GDF6 protein
A375 melanoma cells [2]
  colonies in clonogenic growth assay after shRNA treatment: far fewer colonies
  colonies in clonogenic growth assay, cells expressing SMAD1 phosphomimic (SMAD1DVD): partially restored
  colonies in clonogenic growth assay, empty vector-transfected cells: few colonies formed
A375 melanoma cells [3]
  tumor formation (tumor volume) of shRNA-treated cells xenotransplanted into mice: very little tumor formation; also recorded: formed tumors more slowly than control cells; also recorded: tumor volumes in xenografts decrease with the degree of GDF6 knockdown
  xenograft tumor formation, SMAD1 phosphomimic cells: tumor formation accelerated after day 15
  xenograft tumor formation, empty vector-transfected cells: only small tumors formed

## shSMAD1-1: shRNA targeting SMAD1 (SEQ ID NO:4); SMAD1.1 TRCN0000021781 targets SEQ ID NO:12 (CGGTTGCTTATGAGGAACCAA; the letters are possibly those of the target site; listed as Homo sapiens)
A375 melanoma cells [1]
  apoptosis (Annexin5 staining, Caspase 3/7 cleavage): elevated apoptosis relative to control cells
A375 melanoma cells [2]
  colonies in clonogenic growth assay after shRNA treatment: far fewer colonies
SMAD1
  SMAD1 protein expression after shRNA treatment: knockdown of SMAD1 protein
SMAD1; listed as shSMAD1#1
  SMAD1 protein expression after shRNA treatment: significantly decreased; also recorded: decreases expression of SMAD1 protein
A375 melanoma cells [3]
  tumor formation (tumor volume) of shRNA-treated cells xenotransplanted into mice: formed only very small tumors; also recorded: tumor volumes in xenografts decrease

## shGDF6#1: shRNA targeting GDF6 (SEQ ID NO:1); GDF6.1 TRCN0000141818 targets SEQ ID NO:10 (GCCAAGTGTTACATTGAGCTT; the letters are possibly those of the target site; listed as Homo sapiens)
A375 melanoma cells [1]
  apoptosis (Annexin5 staining, Caspase 3/7 cleavage): elevated apoptosis relative to control cells
GDF6
  GDF6 protein expression after shRNA treatment: partially inhibited GDF6 protein expression; also recorded: knockdown of GDF6 protein; also recorded: diminishes expression of GDF6 protein
A375 melanoma cells [2]
  colonies in clonogenic growth assay after shRNA treatment: far fewer colonies
  colonies in clonogenic growth assay, cells expressing SMAD1 phosphomimic (SMAD1DVD): partially restored
  colonies in clonogenic growth assay, empty vector-transfected cells: few colonies formed
A375 melanoma cells [3]
  tumor formation (tumor volume) of shRNA-treated cells xenotransplanted into mice: tumors intermediate between the control-treated (shEGFP) cells and the shGDF6#2-treated cells; also recorded: tumor volumes in xenografts decrease with the degree of GDF6 knockdown
  xenograft tumor formation, SMAD1 phosphomimic cells: tumor formation accelerated after day 15
  xenograft tumor formation, empty vector-transfected cells: only small tumors formed

## shSMAD1-2: shRNA targeting SMAD1 (SEQ ID NO:5); SMAD1.2 TRCN0000021782 targets SEQ ID NO:13 (GCCGATGGACACAAACATGAT; the letters are possibly those of the target site; listed as Homo sapiens)
A375 melanoma cells [1]
  apoptosis (Annexin5 staining, Caspase 3/7 cleavage): elevated apoptosis relative to control cells
A375 melanoma cells [2]
  colonies in clonogenic growth assay after shRNA treatment: far fewer colonies
SMAD1
  SMAD1 protein expression after shRNA treatment: knockdown of SMAD1 protein
SMAD1; listed as shSMAD1#2
  SMAD1 protein expression after shRNA treatment: significantly decreased; also recorded: decreases expression of SMAD1 protein

B1: recombinant GDF6 protein: recombinant GDF6 protein added to culture media (protein, UniProt Q6KF10 336-455, looked up)
Growth/differentiation factor …: TAFASRHGKRHGKKSRLRCSKKPLHVNFKELGWDDWIIAPLEYEAYHCEGVCDFPLRSHLEPTNHAIIQTLMNSMDPGSTPPSCCVPTKLTPISILYIDAGNNVVYKQYEDMVVESCGCR
MeWo melanoma cells
  proliferation/survival of GDF6-knockdown melanoma cells with recombinant GDF6 added to media: rescued the melanoma cells from undergoing GDF6 shRNA-induced apoptosis; also recorded: proliferation of GDF6-knockdown cells was restored
MeWo melanoma cells; listed as recombinant GDF6
  proliferation/survival of GDF6-knockdown melanoma cells with recombinant GDF6 added to media: able to sustain their proliferation
